Holding throughout (format): biochemical
The target of one assay is CDK9 (Homo sapiens, UniProt P50750). Briefly: experiment of inhibiting kinase activity (Caliper mobility shift assay), CDK9. The settings on record: read-out: inhibition rate CDK9; for inhibition at 0.1 µM: at 100 nM. The protocol:
(§1) The inhibition rates of tested compounds on JAK1, JAK2, JAK3, TYK2, CDK7, CDK9, EGFR (T790M) and LRRK2 kinases were measured. The test concentrations of the compounds were 10 nM and 100 nM, and the detection was performed by replicate wells. Alternatively, compounds were 3-fold serial diluted from 10 µM for 10 concentrations in replicate wells.
(§2) The inhibitory effects of the compounds on JAK1, JAK2, JAK3, CDK7 and CDK9 kinases were detected by the method of Caliper mobility shift assay. 250 nL of the compound at 100-fold final concentration was transferred to a destination plate 384-well-plate by using a liquid handler Echo 550. A kinase solution at 2.5-fold final concentration was prepared with 1×kinase buffer. 10 µL of the kinase solution with 2.5-fold final concentration was added to compound wells and positive control wells; and 10 µL of 1×kinase buffer was added to negative control wells. The mixture was centrifuged at 1000 rpm for 30 seconds and then incubated at room temperature for 10 minutes. A mixed solution of ATP and kinase substrate at 5/3-fold final concentration was prepared with 1×kinase buffer, and 15 µL of the mixed solution of ATP and substrate at 5/3-fold final concentration was added to start the reaction. The 384-well plate was centrifuged at 1000 rpm for 30 seconds, shaked and mixed evenly, then incubated at room temperature for a corresponding time. 30 µL of stop solution was added to stop the kinase reaction, the mixture was centrifuged at 1000 rpm for 30 seconds, and shaked and mixed evenly. The conversion rate was read by Caliper EZ Reader. The conversion inhibition rate%=(average positive control conversion rate%-sample conversion rate%)/(average positive control conversion rate%-average negative control conversion rate%). Where negative control wells represent the conversion readings of the background well of kinase buffer; and positive control wells represent the conversion readings of wells without compound inhibition. With the log value of concentration as the x axis and the percentage inhibition rate as the y axis, the dose-response curve was fitted by the log (inhibitor) vs. response-variable slope of the analyzing softwar GraphPad Prism 5, and the IC50 values of each compound on enzyme activity were obtained. Calculation formula is as follows: y=Bottom+(Top-Bottom)/(1+10^((LogIC50-x)×hillslope)), where x is logarithm of inhibitor concentration; and Y is % inhibition rate.

Another assay deals with LRRK2 (Homo sapiens, UniProt Q5S007). Put plainly: experiment of inhibiting kinase activity, LRRK2. The settings on record: for IC50: kinase activity assay, Table 3; for inhibition at 0.01 µM: at 10 nM; for inhibition at 0.01 µM / inhibition at 0.1 µM: read-out: inhibition rate LRRK2; for inhibition at 0.1 µM: at 100 nM. The procedure:
as §1

Another assay concerns the target JAK2 (Homo sapiens, UniProt O60674). Briefly: experiment of inhibiting kinase activity (Caliper mobility shift assay), JAK2. The following applies: for inhibition at 0.01 µM: at 10 nM; for inhibition at 0.01 µM / inhibition at 0.1 µM: read-out: inhibition rate JAK2; for inhibition at 0.1 µM: at 100 nM. The method in brief:
(§3)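 Mobility-shift readout of substrate conversion; % inhibition normalized to uninhibited-enzyme wells (0%) and buffer-only background wells. Dosing: single points at 10 and 100 nM, or 3-fold series from 10 µM (10 conc.), replicates. Kinase + compound 10 min RT, then ATP/substrate.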

Another assay concerns the target T1, JAK3 (Homo sapiens, UniProt P52333).
T1 sequence (P52333 1-1124): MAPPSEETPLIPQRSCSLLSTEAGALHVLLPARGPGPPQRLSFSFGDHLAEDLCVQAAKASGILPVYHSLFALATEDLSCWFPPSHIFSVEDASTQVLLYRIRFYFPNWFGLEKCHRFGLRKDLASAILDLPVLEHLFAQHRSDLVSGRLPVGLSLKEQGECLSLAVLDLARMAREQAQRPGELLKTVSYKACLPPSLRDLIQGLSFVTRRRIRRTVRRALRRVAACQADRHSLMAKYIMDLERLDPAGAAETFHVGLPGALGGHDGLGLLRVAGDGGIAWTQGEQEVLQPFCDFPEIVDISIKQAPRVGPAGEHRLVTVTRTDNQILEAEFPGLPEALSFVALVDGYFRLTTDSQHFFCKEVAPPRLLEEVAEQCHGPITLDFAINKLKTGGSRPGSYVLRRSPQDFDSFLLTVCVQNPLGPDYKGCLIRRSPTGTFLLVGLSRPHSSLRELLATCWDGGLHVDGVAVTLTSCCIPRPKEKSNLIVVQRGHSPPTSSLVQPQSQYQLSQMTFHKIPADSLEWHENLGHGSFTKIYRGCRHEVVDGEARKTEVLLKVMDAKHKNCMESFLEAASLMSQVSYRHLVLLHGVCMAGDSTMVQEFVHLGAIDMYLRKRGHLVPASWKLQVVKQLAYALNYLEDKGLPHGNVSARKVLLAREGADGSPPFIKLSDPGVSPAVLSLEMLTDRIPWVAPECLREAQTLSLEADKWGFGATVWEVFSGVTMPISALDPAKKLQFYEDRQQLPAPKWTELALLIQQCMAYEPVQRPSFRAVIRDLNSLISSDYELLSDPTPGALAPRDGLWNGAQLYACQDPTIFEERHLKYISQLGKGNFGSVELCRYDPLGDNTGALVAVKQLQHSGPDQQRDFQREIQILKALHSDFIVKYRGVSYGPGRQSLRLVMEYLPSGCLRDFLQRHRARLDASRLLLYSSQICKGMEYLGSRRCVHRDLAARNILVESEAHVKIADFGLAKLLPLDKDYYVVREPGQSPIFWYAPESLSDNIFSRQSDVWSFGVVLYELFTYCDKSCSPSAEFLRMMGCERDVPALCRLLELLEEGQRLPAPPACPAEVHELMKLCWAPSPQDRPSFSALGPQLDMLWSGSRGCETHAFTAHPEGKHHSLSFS
Briefly: experiment of inhibiting kinase activity (Caliper mobility shift assay), JAK3. The following applies: for inhibition at 0.01 µM: at 10 nM; for inhibition at 0.01 µM / inhibition at 0.1 µM: read-out: inhibition rate JAK3; for inhibition at 0.1 µM: at 100 nM. Summed up:
as §3

The target of another assay is TYK2 (Homo sapiens, UniProt P29597). Put plainly: experiment of inhibiting kinase activity, TYK2. The following applies: read-out: inhibition rate TYK2; for inhibition at 0.01 µM: at 10 nM; for inhibition at 0.1 µM: at 100 nM. The protocol: as §1
The target of a further assay is CDK7 (Homo sapiens, UniProt P50613). Put plainly: experiment of inhibiting kinase activity (Caliper mobility shift assay), CDK7. The settings on record: read-out: inhibition rate CDK7; for inhibition at 0.1 µM: at 100 nM; for inhibition at 0.01 µM: at 10 nM. The protocol:
as §1, §2

A further assay concerns the target JAK1 (Homo sapiens, UniProt P23458). Briefly: experiment of inhibiting kinase activity (Caliper mobility shift assay), JAK1. The following applies: for inhibition at 0.1 µM: at 100 nM. The method in brief: as §3

This is an account of results in EP4592286A1, “MACROCYCLIC NITROGEN-CONTAINING CROWN ETHER COMPOUND AND USE THEREOF AS PROTEIN KINASE INHIBITOR” (Artivila Biopharma, priority 2022, dated 2024).

SMILES strings stand for the structures.

LRRK2, sequence (Q5S007 whole entry): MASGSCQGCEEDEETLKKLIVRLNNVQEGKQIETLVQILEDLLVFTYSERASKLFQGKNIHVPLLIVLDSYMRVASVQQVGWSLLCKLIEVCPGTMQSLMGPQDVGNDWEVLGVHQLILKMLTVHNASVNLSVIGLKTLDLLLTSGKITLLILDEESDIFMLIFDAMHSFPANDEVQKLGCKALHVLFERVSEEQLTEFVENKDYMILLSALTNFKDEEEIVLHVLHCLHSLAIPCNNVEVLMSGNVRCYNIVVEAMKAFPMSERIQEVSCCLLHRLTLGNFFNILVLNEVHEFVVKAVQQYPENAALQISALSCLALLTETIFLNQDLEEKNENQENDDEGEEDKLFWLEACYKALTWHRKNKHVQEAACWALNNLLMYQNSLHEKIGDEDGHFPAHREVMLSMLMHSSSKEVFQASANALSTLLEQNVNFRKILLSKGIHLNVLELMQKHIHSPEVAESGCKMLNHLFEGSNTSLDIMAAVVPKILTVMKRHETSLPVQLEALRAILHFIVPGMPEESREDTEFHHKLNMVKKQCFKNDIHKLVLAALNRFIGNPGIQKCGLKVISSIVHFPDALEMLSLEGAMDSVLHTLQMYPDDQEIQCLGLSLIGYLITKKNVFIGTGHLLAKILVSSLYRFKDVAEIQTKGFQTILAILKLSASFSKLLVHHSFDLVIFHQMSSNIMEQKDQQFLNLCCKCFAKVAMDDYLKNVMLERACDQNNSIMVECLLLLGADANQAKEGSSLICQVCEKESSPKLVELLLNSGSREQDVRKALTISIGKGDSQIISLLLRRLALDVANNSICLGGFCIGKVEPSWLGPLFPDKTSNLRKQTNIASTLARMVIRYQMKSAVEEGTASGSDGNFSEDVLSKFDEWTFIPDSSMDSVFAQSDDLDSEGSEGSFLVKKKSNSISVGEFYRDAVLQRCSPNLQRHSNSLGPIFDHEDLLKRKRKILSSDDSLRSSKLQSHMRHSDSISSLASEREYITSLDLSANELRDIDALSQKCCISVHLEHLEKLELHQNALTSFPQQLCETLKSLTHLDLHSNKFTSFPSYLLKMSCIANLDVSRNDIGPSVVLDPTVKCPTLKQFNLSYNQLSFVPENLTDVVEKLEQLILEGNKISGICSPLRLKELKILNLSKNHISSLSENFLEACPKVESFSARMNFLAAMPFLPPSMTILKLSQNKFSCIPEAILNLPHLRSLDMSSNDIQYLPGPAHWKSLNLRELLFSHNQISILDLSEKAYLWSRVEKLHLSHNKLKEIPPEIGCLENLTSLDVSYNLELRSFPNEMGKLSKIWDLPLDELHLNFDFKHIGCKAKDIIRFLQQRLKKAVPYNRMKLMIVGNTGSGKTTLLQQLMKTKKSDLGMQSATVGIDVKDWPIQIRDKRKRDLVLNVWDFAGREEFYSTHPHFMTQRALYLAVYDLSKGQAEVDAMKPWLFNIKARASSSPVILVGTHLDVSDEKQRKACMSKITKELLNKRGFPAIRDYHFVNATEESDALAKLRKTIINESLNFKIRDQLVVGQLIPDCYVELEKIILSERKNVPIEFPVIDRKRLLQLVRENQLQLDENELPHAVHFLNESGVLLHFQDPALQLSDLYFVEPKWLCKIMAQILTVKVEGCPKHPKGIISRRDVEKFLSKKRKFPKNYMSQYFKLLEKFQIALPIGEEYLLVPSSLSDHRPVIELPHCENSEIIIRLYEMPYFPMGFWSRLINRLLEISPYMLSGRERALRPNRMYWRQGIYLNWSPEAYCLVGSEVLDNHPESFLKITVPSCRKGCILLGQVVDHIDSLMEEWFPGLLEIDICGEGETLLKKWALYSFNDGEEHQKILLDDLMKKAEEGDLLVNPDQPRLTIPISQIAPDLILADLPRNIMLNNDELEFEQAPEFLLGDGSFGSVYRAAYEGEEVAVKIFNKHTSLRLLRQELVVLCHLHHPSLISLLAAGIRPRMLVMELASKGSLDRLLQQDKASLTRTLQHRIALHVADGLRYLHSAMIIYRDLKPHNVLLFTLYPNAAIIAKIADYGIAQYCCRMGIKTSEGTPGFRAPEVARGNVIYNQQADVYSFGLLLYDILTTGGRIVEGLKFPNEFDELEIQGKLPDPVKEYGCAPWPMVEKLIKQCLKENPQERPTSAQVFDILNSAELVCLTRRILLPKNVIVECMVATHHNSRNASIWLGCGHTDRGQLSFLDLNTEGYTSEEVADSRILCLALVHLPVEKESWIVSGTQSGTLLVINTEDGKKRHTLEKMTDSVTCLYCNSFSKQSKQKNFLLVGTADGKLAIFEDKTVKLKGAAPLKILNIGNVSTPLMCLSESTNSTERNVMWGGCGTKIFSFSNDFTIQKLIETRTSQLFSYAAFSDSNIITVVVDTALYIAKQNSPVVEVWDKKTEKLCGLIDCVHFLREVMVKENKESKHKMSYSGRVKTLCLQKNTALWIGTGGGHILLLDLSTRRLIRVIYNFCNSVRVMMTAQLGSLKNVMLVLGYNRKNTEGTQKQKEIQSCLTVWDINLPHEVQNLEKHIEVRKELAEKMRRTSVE
JAK2, sequence (O60674 whole entry): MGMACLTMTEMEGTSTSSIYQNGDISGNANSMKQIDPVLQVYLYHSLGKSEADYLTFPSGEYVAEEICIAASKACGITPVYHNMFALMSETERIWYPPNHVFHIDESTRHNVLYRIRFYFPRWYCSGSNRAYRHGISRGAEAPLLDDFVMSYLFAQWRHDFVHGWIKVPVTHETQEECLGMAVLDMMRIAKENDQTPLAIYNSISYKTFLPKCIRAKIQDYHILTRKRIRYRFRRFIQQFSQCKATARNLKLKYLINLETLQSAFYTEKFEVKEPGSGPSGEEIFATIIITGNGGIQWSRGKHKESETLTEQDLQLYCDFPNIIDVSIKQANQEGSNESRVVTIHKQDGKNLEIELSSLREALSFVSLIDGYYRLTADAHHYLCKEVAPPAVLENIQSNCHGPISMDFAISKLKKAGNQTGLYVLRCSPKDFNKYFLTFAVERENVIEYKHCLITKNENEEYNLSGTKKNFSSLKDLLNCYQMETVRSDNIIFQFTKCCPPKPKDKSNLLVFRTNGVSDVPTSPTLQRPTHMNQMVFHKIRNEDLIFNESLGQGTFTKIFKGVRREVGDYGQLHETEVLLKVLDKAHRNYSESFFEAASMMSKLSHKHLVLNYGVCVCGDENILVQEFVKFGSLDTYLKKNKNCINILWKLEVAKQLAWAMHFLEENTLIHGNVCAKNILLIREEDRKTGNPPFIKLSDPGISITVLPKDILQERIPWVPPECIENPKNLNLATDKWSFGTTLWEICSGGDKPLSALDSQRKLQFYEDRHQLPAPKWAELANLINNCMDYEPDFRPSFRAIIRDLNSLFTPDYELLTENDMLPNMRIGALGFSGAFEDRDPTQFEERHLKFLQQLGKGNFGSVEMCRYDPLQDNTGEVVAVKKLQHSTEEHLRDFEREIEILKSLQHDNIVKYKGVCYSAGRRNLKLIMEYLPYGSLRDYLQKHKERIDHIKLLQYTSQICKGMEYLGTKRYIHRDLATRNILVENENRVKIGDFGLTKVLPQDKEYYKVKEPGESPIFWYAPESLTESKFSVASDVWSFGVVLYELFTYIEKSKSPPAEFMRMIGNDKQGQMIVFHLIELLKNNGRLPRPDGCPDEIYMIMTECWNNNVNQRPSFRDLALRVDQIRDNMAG
CDK9, sequence (P50750 whole entry): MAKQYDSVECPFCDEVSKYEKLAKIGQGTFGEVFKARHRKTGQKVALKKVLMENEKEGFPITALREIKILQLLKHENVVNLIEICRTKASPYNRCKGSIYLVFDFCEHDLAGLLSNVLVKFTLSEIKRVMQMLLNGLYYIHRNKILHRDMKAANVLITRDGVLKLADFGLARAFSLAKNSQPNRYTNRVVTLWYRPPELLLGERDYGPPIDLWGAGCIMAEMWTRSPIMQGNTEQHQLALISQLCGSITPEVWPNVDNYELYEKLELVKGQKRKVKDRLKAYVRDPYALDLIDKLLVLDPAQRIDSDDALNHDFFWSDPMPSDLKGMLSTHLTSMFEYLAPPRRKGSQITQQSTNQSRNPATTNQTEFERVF
CDK9, sequence (O60563 whole entry partner): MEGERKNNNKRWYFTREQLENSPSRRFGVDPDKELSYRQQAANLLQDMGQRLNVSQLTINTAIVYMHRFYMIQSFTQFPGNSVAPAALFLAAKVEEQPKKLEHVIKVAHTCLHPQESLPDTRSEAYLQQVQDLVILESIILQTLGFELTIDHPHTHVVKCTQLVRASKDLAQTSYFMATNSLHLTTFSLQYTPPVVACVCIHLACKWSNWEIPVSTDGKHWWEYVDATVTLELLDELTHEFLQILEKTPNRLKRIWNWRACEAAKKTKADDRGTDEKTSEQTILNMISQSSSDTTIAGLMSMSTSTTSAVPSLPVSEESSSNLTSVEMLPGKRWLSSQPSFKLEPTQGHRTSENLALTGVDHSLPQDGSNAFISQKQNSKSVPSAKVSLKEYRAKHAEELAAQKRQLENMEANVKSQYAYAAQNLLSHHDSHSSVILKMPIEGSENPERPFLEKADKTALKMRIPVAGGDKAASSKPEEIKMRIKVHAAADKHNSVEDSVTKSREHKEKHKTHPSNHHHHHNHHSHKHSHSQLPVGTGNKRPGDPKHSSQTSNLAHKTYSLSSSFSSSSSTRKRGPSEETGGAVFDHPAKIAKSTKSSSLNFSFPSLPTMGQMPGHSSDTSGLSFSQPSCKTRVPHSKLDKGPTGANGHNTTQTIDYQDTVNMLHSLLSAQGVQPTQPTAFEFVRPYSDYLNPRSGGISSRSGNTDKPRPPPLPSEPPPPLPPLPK

By inhibition is commonly meant the change of the read-out against control, counted positive when it falls. Usually IC50 stands for the concentration that gives 50% inhibition. Turning to `CN1CCOc2ccc(Nc3nc(NCCP(C)(C)=O)c4cc[nH]c4n3)cc2OCC1` [Example 85, dimethyl(2-((2-((4-methyl-3,4,5,6-tetrahydro-2H-benzo[b][1,4,7]dioxazolin-9-yl)amino)-7H-pyrrolo[2,3-d]pyrimidin-4-yl)amino)ethyl)phosphine oxide], the inhibition at 0.1 µM on CDK9 was greater than 80%. This molecule registered an IC50 against LRRK2 of less than 50 nM.

Turning to `CN1CCOCCOc2cc(Nc3nc(Nc4ccccc4P(C)(C)=O)c4cc[nH]c4n3)ccc2OCC1` [Example 32, dimethyl(2-((2-((7-methyl-2,3,6,7,8,9-hexahydro-5H-benzo[b][1,4,7]trioxa[10]azacyclododecan-13-yl)amino)-7H-pyrrolo[2,3-d]pyrimidin-4-yl)amino)phenyl)phosphine oxide], the inhibition at 0.01 µM at JAK2 was 40 to 79%; at JAK3 it was greater than 80%; on TYK2, 25 to 39%; at LRRK2 it was greater than 80%. In addition, the inhibition at 0.1 µM was greater than 80% at JAK2; greater than 80% on JAK3; 40 to 79% at TYK2; 40 to 79% at CDK7; 25 to 39% on CDK9; greater than 80% on LRRK2. For the same molecule, at LRRK2, the IC50 was less than 50 nM.

In the case of `CC(C)S(=O)(=O)c1ccccc1Nc1nc(Nc2ccc3c(c2)OCCOCCN(S(C)(=O)=O)CCO3)nc2[nH]ccc12` [Example 99, N^4-(2-(isopropylsulfonyl)phenyl)-N^2-(7-(methylsulfonyl)-2,3,6,7,8,9-hexahydro-5H-benzo[b][1,4,7]trioxa[10]azacyclododecan-13-yl)-7H-pyrrolo[2,3-d]pyrimidin-2,4-diamine], the inhibition at 0.01 µM at JAK1 (at 10 nM, read-out: inhibition rate JAK1) lay in the range of 25 to 39%; at JAK2, 40 to 79%; at JAK3 it was 40 to 79%; on TYK2, 25 to 39%; at CDK7, 40 to 79%. The inhibition at 0.1 µM on JAK1 (read-out: inhibition rate JAK1) is 40 to 79%; at JAK2 it was greater than 80%; at JAK3, greater than 80%; on TYK2 it was greater than 80%; at CDK7, greater than 80%; on CDK9 it was 25 to 39%. Besides, the inhibition at 0.1 µM on LRRK2 was greater than 80%.

On to `CN1CCOCCOc2cc(Nc3ncc(F)c(Nc4ccc5[nH]ccc5c4)n3)ccc2OCC1` [Example 30, 5-fluoro-N^4-(1H-indol-5-yl)-N^2-(7-methyl-2,3,6,7,8,9-hexahydro-5H-benzo[b][1,4,7]trioxa[10]azacyclododecan-13-yl)pyrimidin-2,4-diamine], for which the inhibition at 0.1 µM on JAK1 (read-out: inhibition rate JAK1) is 25 to 39%; at JAK2 it was greater than 80%; on JAK3 it was greater than 80%; at TYK2 it was 40 to 79%; at CDK7 it was 40 to 79%; at CDK9, 40 to 79%. Further, the inhibition at 0.1 µM on LRRK2 was 25 to 39%. Moreover, the inhibition at 0.01 µM on JAK2 was 40 to 79%; at JAK3, 25 to 39%.

For `CC(C)S(=O)(=O)c1ccccc1Nc1nc(Nc2ccc3c(c2)OCCOCCN(C)CCO3)nc2[nH]cnc12` [Example 60, N^6-(2-(isopropylsulfonyl)phenyl)-N^2-(7-methyl-2,3,6,7,8,9-hexahydro-5H-benzo[b][1,4,7]trioxa[10]azacyclododecan-13-yl)-9H-purin-2,6-diamine], the inhibition at 0.01 µM at JAK2 is 40 to 79%; on JAK3 it was 40 to 79%; at CDK7 it was greater than 80%; on LRRK2, 40 to 79%. The inhibition at 0.1 µM at JAK2 was greater than 80%; at JAK3, greater than 80%; on TYK2 it was 40 to 79%; at CDK7 it was greater than 80%; at CDK9, 40 to 79%; at LRRK2, greater than 80%.

Regarding `CN1CCOc2ccc(Nc3ncc(F)c(-c4ccc(C(=O)NCC#N)cc4)n3)cc2OCC1` [Example 15, N-(Cyanomethyl)-4-(5-fluoro-2-((4-methyl-3,4,5,6-tetrahydro-2H-benzo[b][1,4,7]dioxazolin-9-yl)amino)pyrimidin-4-yl)benzamide], the inhibition at 0.1 µM is 40 to 79% at JAK1 (read-out: inhibition rate JAK1); greater than 80% at JAK2; greater than 80% at TYK2; 40 to 79% on CDK9; 40 to 79% at LRRK2. Besides, the IC50 at JAK1 (kinase activity assay, Table 3) was less than 50 nM; at JAK2 (kinase activity assay, Table 3), less than 50 nM; at JAK3 (kinase activity assay, Table 3) it was less than 50 nM; against LRRK2, 50 to 200 nM. The inhibition at 0.01 µM on JAK2 was in the range of 40 to 79%; on TYK2, 25 to 39%.

Take `Cc1nc2c(F)cc(-c3nc(Nc4ccc5c(c4)OCCOCCN(C)CCO5)nc4[nH]ccc34)cc2n1C(C)C` [Example 31, N-(4-(4-fluoro-1-isopropyl-2-methyl-1H-benzo[d]imidazol-6-yl)-7H-pyrrolo[2,3-d]pyrimidin-2-yl)-7-methyl-2,3,6,7,8,9-hexahydro-5H-benzo[b][1,4,7]trioxa[10] azacyclododecan-13-amine]: the inhibition at 0.01 µM at JAK2 was 40 to 79%; at JAK3 it was 40 to 79%; at CDK9 (at 10 nM), 25 to 39%; on LRRK2, 40 to 79%. In addition, the inhibition at 0.1 µM on JAK2 is greater than 80%; on JAK3, greater than 80%; at TYK2, 40 to 79%; at CDK7 it was 40 to 79%; on CDK9 it was 40 to 79%; at LRRK2, greater than 80%.
